Data on 2 compounds can be found in patent publication EP0080284A1, “Derivatives of clavulanic acid, processes for their preparation and their use” (BEECHAM GROUP PLC, priority 1981, dated 1983).

Holding throughout (assay): standard MIC test, synergist in combination with amoxycillin
Type in all cases: cell-based
Common to all, as to settings: substance alone, unit assumed

One assay relates to E.coli JT39. The procedure:
(§1) In a standard MIC test the compound of Example 2 was tested as a synergist in combination with amoxycillin: […]

A further assay deals with Klebsiella Aerogenes E70. How it is done: as §1
The subject of another assay is Staph Aureus Russell. The procedure: as §1

By MIC is commonly meant the lowest concentration found to suppress growth.

Each structure is given as a SMILES string.

Take `CC1(C)S[C@@H]2[C@H](NC(=O)[C@H](N)c3ccc(O)cc3)C(=O)N2[C@H]1C(=O)O` [Amoxycillin]: the values for the MIC with E.coli JT39, in the assay on Klebsiella Aerogenes E70 and in the assay with Staph Aureus Russell were 2000 mg/L, 500 mg/L and 500 mg/L, respectively.

For `COC(OC)OC/C=C1\O[C@@H]2CC(=O)N2[C@H]1C(=O)O` [Ex. 2, Lithium 9-O-(dimethoxymethyl)clavulanate], the MIC was determined as 31 mg/L in the assay with E.coli JT39, 62 mg/L with Klebsiella Aerogenes E70 and 62 mg/L in the assay on Staph Aureus Russell.
